Results published in patent publication US20120076775A1, “Combination of HGF Inhibitor and EGF Inhibitor to Treat Cancer” (priority 2008, published 2012).

Legend:
U87EGFRvIII xenografts = assay: U87EGFRvIII s.c. xenograft, tumor growth; assay type: in vivo; conditions: s.c. U87EGFRvIII in immunodeficient mice; mAbs i.p. 5 mg/kg days 8, 12, 15; erlotinib 150 mg/kg 6 times per week
Procedure: Illustrative but not limiting examples of immunodeficient strains of mice that can be used are nude mice such as CD-1 nude, Nu/Nu, Balb/c nude, NIH-III (NIH-bg-nu-xid BR); scid mice such as Fox Chase SCID (C.B-17 SCID), Fox Chase outbred SCID and SCID Beige; mice deficient in RAG enzyme; as well as nude rats. Experiments are carried out as described previously (Kim et al., Nature 362:841, 1992, which is incorporated herein by reference). Human tumor cells typically grown in complete DMEM medium are typically harvested in HBSS. Female immunodeficient, e.g., athymic nude mice (4-6 wks old) are injected s.c. with typically 5×10^6 cells in 0.2 ml of HBSS in the dorsal areas. When the tumor size reaches 50-100 mm^3, the mice are grouped randomly and appropriate amounts of the agents are administered. […] Tumor sizes are determined typically twice a week by measuring in two dimensions [length (a) and width (b)]. Tumor volume is calculated according to V=ab^2/2 and expressed as mean tumor volume±SEM. […] The effect of the agents may measured by growth of the tumor with time, prolongation of the survival of the mice, or increase in percent of the mice surviving at a given time or indefinitely. […]

[1] = test system: U87EGFRvIII intracranial xenografts; assay: U87EGFRvIII intracranial xenograft, survival; assay type: in vivo, mice; conditions: treated day 5 to 21, 5 mg/kg mAb twice per week, 150 mg erlotinib 6 times per week
Procedure: In this experiment, mice were implanted intracranially with U87EGFRvIII cells as described (Kim et al, op. cit.) in order to more accurately simulate brain tumors. Four groups of mice were treated with control mAb 5G8 or anti-HGF mAb L27, either alone or in combination with erlotinib, from post-implantation day 5 to 21 (5 mg/kg mAb twice per week; 150 mg erlotinib 6 times per week).

[2] = test system: GB-d1 gallbladder tumor xenografts; assay: GB-d1 gallbladder tumor s.c. xenograft, tumor growth; assay type: in vivo; conditions: NIH III xid/Beige/nude mice, mAbs 100 μg (approx. 5 mg/kg) twice per week from day 13
Procedure: Human tumor cells typically grown in complete DMEM medium are typically harvested in HBSS. Female immunodeficient, e.g., athymic nude mice (4-6 wks old) are injected s.c. with typically 5×10^6 cells in 0.2 ml of HBSS in the dorsal areas. When the tumor size reaches 50-100 mm^3, the mice are grouped randomly and appropriate amounts of the agents are administered. […] Tumor sizes are determined typically twice a week by measuring in two dimensions [length (a) and width (b)]. Tumor volume is calculated according to V=ab^2/2 and expressed as mean tumor volume±SEM. The number of mice in each treatment group is at least 3, but more often between 5 and 10, e.g., 7. One group of mice is treated with both agents; other groups may be treated with neither agent or with one agent but not the other agent. […] Statistical analysis may be performed using, e.g., Student's t test.
For example, such an experiment was performed with GB-d1 gallbladder tumor xenografts. Female NIH III xid/Beige/nude mice (4-6 wks old) were implanted with tumors by s.c. injection of 10^6 GB-d1 cells in the dorsal areas. When the tumor size reached ˜100 mm^3, the mice were grouped randomly into 4 groups of 5 mice each. […] The mAbs were administered twice per week at 100 μg (approx. 5 mg/kg body weight) from day 13. Tumor sizes were determined twice per week as described above.

[3] = biological target: heparin sulfate proteoglycans (HSPG); conditions: literature; read-out: Kd, low affinity binding site for HSPG; cited from earlier work
cMet receptor = cMet receptor (Homo sapiens, UniProt P08581); conditions: literature; read-out: Kd, high affinity binding site for cMet receptor; cited from earlier work
cMet receptor, sequence (P08581 25-1390): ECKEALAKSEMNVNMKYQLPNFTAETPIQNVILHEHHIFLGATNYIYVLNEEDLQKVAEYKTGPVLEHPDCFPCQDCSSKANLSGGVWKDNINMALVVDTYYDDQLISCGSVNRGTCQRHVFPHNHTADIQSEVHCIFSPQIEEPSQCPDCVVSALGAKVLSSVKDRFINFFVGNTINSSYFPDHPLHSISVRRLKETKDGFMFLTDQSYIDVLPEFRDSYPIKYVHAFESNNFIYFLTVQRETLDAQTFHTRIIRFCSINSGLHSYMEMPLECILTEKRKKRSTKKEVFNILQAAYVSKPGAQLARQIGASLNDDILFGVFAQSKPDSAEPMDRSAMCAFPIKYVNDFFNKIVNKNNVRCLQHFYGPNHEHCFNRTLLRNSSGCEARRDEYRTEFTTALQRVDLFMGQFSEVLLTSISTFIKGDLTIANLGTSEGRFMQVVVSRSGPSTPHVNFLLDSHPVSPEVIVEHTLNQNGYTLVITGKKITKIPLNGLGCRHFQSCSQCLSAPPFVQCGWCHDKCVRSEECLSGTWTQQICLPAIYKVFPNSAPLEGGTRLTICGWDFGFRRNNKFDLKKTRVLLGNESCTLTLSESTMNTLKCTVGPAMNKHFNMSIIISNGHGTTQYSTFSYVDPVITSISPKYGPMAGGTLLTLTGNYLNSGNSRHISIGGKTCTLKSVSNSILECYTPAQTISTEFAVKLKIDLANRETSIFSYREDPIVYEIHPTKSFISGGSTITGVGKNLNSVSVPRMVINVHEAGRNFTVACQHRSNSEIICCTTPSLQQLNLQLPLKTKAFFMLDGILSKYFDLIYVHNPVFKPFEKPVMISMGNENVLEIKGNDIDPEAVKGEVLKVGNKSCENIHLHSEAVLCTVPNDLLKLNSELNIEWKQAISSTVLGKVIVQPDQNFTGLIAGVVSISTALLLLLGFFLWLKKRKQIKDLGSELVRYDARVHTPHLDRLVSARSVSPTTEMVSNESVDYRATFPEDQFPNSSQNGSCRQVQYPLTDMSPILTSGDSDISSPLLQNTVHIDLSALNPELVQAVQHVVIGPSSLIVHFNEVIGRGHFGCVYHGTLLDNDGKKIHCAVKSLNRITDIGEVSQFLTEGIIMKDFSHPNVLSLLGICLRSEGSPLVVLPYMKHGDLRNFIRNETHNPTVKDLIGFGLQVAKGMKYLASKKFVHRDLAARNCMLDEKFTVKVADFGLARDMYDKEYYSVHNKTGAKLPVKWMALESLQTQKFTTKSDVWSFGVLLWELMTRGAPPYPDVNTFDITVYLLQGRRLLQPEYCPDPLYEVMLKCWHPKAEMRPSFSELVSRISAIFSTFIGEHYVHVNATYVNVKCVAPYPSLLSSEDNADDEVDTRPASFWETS

In the case of `C#Cc1cccc(Nc2ncnc3cc(OCCOC)c(OCCOC)cc23)c1` [erlotinib, N-(3-ethynylphenyl)-6,7-bis(2-methoxyethoxy)-4-quinazolinamine], the “inhibition of growth of xenografts (FIG. 2)” value (U87EGFRvIII xenografts) is reported as “only modestly inhibited growth of the tumors” and the “prolongation of survival (FIG. 3)” value [1] is reported as “slightly but significantly prolonged survival”.
With “HuL2G7: humanized L2G7 anti-HGF mAb; heavy and light chains SEQ ID NO:1 and 2” the “inhibition of tumor growth (FIG. 1)” value [2] was “partially inhibited tumor growth”.
In the case of “HGF: 102 kDa heterodimeric polypeptide growth factor, ligand of cMet”, the Kd [3] is listed as 1 nM and the Kd (cMet receptor) is listed as 0.2 nM.
